Results on one compound are retold here after patent publication US11203598B2, “Compounds for repressing cancer cell growth” (Institute For Cancer Research, priority 2018, dated 2021).

Experiment [1] concerns the target T1, endogenous R175H p53 in RXF393 renal cancer cells (Homo sapiens, UniProt P04637, R175H).
T1 construct: RXF393 renal cancer cells that endogenously express R175H p53; endogenous in cells; host or cells: RXF393 renal cancer cells
The experiment in a line: Western blot of mutant p53. The class given is cell-based. How it is done: After treatment, cells were harvested by trypsinization, washed with PBS, and lysed with RIPA buffer (Sigma-Aldrich) for 30 minutes to 1 hour at 4° C. Protein lysates were spun down and supernatant was collected. Protein quantification was performed using a Pierce™ BCA Protein Assay Kit (Thermo Fisher Scientific). 1×NuPAGE® LDS sample buffer (Thermo Fisher Scientific) and 2-Mercaptoethanol as the reducing agent (Sigma-Aldrich) were added to protein lysates, followed by boiling for 15 minutes at 95° C. Equal total protein amounts samples were loaded into NuPAGE™ Novex™ 4-12% Bis-Tris Protein Gels (1.5 mm, Thermo Fisher Scientific) and gel eletrophoresis was performed with NuPAGE™ MES SDS Running Buffer. Proteins were transferred onto an Immobilon-P membrane (PVDF, EMD Millipore) using a Bio-Rad system with a 10% Tris-Glycine and 10% methanol transfer buffer diluted in distilled and deionized water. After transfer, membranes were blocked with 10% milk in TBST solution and then incubated overnight with primary antibody, washed with TBST and incubated with secondary antibody for 1 hour. Incubations were performed in 5% milk in TBST solution. Signal was detected by using a chemiluminescent detection kit, followed by autoradiography. […]
(In general: A western blot detects proteins with antibodies after separation by electrophoresis.)

The test system of a further experiment is cell cycle G2 checkpoint. Briefly: propidium iodide staining cell cycle analysis. It is filed as cell-based. The note with it: 24 hour treatment, alone and with etoposide. The procedure:
Referring to FIG. 22 (panels A-F), propidium iodide staining cell cycle analysis for 24 hour treatment with DMSO (panel A), CB002 (panel B), CB002 and etoposide (panel C), etoposide (panel D), caffeine (panel E), and caffeine and etoposixe (panel F). […] The deregulation of the G2 checkpoint as a mechanism by caffeine prevents […] tumor cells that are treated with DNA damaging drugs, such as etoposide, from arresting to have time to repair, and thus sensitizes cancer cells to cell death.

Experiment [2] deals with autophagic vacuoles in DLD-1 cells. Briefly: CYTO-ID autophagy detection kit. It is filed as cell-based, human. The note with it: 50 μM, 24 hours, versus DMSO.
Experiment [3] has as its system SW480 NOXA stable knockdown cells. Briefly: apoptosis assay, sub-G1 analysis. The class given is cell-based, human. The note with it: 96 μM, 48 hours, NOXA stably knocked down; DMSO 3.93%. The procedure:
A NOXA shRNA plasmid construct was amplified according to the manufacturer's recommendation (TRC Lentiviral Human PMAIP1 shRNA, Dharmacon). Plasmid DNA was isolated using the PureLink® HiPure Plasmid Filter Maxiprep Kit (Invitrogen) according to the manufacturer's instructions. Lentivirus production was performed by transfecting HEK293T cells at a density of 8×10^6 cells per 10 cm dish with 1.6 μg pMD2.G envelope plasmid, 3.2 μg psPAX2 packaging vector, 3.2 μg plasmid DNA, and 24 μL of Lipofectamine® Transfection reagent 2000 (Life Technologies) in a total volume of reaction of 1 mL of antibiotic free DMEM media for a period of 6-10 hours. Media was then replaced with antibiotic free DMEM. Lentiviral particles were collected between 48-72 hours. SW480 cells ([…] in a 12-well plate) were infected 1:1 (virus containing media: antibiotic free DMEM media, total volume 1 mL) for a period of 24 hours. Then, media was replaced with DMEM complete media for an additional 24 hours. At this point, cells were split and seeded (20% confluent) for selection in a 10 cm dish with puromycin (2.5 μg/mL)-containing complete DMEM media and cultured for 10 days. Puromycin containing complete media was replaced every 2-3 days. Puromycin-resistant clones were screened for knockdown of NOXA by Western blot analysis with NOXA antibody.
Apoptotic cells were quantified by sub-G1 analysis. […]

Experiment [4] concerns the target T2, mutant p53 in SW480 cells (Homo sapiens, UniProt P04637, P309S/R273H).
T2 construct: endogenous in cells; host or cells: SW480 colorectal cancer cells
The experiment in a line: cycloheximide chase assay. The note with it: 24 hours treatment, then 100 μg/mL cycloheximide, 0-10 hours. It is filed as cell-based. The procedure:
As mutant p53 can acquire a gain-of-function activity, targeting mutant p53 for degradation has been explored as a therapeutic strategy. To investigate the capability of CB002 to impact on mutant p53 protein expression, Western blot analysis was used. […] To confirm these findings, a cycloheximide chase assay was performed. Cells were treated with vehicle control or CB002 for a period of 24 hours. Subsequently, 100 μg/mL cycloheximide was added to the wells and protein lysates were collected at different time points between 0-10 hours. […] Referring to FIG. 6, experiments with SW480 cells (Panels A and B) and analysis of DLD-1 colorectal cancer cells (Panel C) are shown. Cells were treated for a 24 hour period with DMSO, CB002 or positive control followed by 100 μg/mL of cycloheximide addition, and protein stability was evaluated in a time course ranging from 0-10 hours. Histone deacetylase inhibitor, SAHA and Hsp90 inhibitor Geldanamycin (1 μM GA) were used as positive controls.

On to `Cn1c(=O)c2[nH]c(Nc3ccccc3)nc2n(C)c1=O` [CB002, 8-anilino-1,3-dimethyl-3,7-dihydro-1H-purine-2,6-dione], for which the “mutant p53 degradation, with Ganetespib” value in experiment [1] (96 μM CB002 and/or 0.1 μM Ganetespib, 16 hours) is “enhanced CB002-mediated mutant p53 degradation”. For the same compound, in experiment [1] (100 and 150 μM, 16 and 24 hours), the “R175H p53 mutant expression” value is reported as “decrease R175H p53 mutant expression”. Moreover, the “effect on cell cycle G2 checkpoint” value in the experiment on cell cycle G2 checkpoint is on record as “does not appear to deregulate the G2 cell cycle checkpoint”. Also, in experiment [2], the autophagic vacuole-specific staining entry is reported as “increase in autophagic vacuole-specific staining”. In addition, in experiment [3], the sub-G1 content is recorded as 3.7%. The “mutant p53 stability” value in experiment [4] is recorded as “did not affect mutant p53 stability”.
